Results: patent US10130619B2, “Amido thiadiazole derivatives as NADPH oxidase inhibitors” (GENKYOTEX SUISSE SA, priority 2014, dated 2018)

molecular target: hNOX1 (Homo sapiens (Human), UniProt Q9Y5S8); test: ROS production measurement on hNOX1 membranes (Amplex Red fluorescence assay, assay 1); type: biochemical; conditions: assay 1: membranes from CHO cells overexpressing hNox1, Amplex Red/HRP fluorescence, NADPH 30 μM; non linear regression (GraphPad Prism); read-out: Nox1 inhibitory constant Ki
Method: Reactive oxygen species (ROS) production generated by hNOX1 enzyme was measured by fluorescence in both cellular and membrane-based assays using the Amplex® Red reagent. In the presence of horseradish peroxidase (HRP), the Amplex® Red reagent (10-acetyl-3,7-dihydroxyphenoxazine, AR), which is a colorless and nonfluorescent derivative of dihydroresorufin, reacts with H2O2 with a 1:1 stoichiometry to produce highly fluorescent resorufin at an excitation and emission wavelengths of 544 nm and 590 nm, respectively.
After resuspension in sonication buffer (11% sucrose, 120 mM NaCl, 1 mM EGTA in PBS, pH 7.4), cells were broken by sonication and centrifuged (200 g, 10 min). The supernatant was layered onto a 17/40% (w/v) discontinuous sucrose gradient and centrifuged (150,000 g for 30 min). Membrane fractions were collected from the 17/40% interface, aliquoted in 10 μl samples and were stored at −80° C. Protein concentration was determined with Bradford reagent. Flavin Adenine Dinucleotide (FAD) (catalog # F6625-500MG), MgCl2 (catalog # M8266-100G), Phosphatidic Acid (PA) (catalog # P3591-50MG) were purchased from Sigma-Aldrich. […] NADPH (catalog #A1395, 0500) was purchased from Applichem. Amplex red (AR) (catalog # A22177) was purchased from Invitrogen. […] FLUOstar OPTIMA microplate reader was supplied by BMG Labtech (Germany). Zephyr® Compact Liquid Handling Workstation was supplied by PerkinElmer (Germany).
Assay 1: ROS Production Measurement on hNOX1 Membranes
All solutions were placed on ice and protected from light.
The NADPH was dissolved in water at a concentration of 12 mM and was transferred in a metal transfer plate kept at 4° C. The NADPH was added to the assay plate to initiate the reaction just before the measurement.
Serial dilution (1:3, 10 serial dilution) of the compounds was performed in 100% DMSO in 96 well polypropylene plate—Row B-H […], Row A, Column 1-10 contained reference compound. Starting concentration was 10^−2 M (10 mM). Final concentration in assay was 10^−4 M (100 μM). Compounds were diluted twice in PBS buffer by transferring 30 μl/well of PBS into 30 μl/well compounds sample in DMSO using Zephyr® Compact Liquid Handling Workstation. Control wells-columns 1 and 12-contained 60 μl DMSO in 50% PBS pH7.
Reaction mixture is dispensed using Zephyr® Compact Liquid Handling Workstation. 90 μl of mix with membrane were dispensed into 96 well black plates—Column 2-11, Column 1 Row A-D, Column 12 Row E-H. 90 μl of control mix were dispensed into assay plate—Column 1 Row E-H, Column 12 Row A-D, which are wells for measuring background signal. 2 μl of compounds were dispensed into each well of assay plate using Zephyr® Compact Liquid Handling Workstation. The reaction mixture with compounds was incubated in assay plates for 20 min at 37° C. in a Titramax microplate incubator with gentle agitation. 10 μl of NADPH is dispensed to the assay plate. Fluorescence reading was recorded with the FLUOstar OPTIMA microplate reader for 10 min at 37° C. (8 cycles, 1 cycle duration 55 sec).

hNOX1, sequence (Q9Y5S8 whole entry): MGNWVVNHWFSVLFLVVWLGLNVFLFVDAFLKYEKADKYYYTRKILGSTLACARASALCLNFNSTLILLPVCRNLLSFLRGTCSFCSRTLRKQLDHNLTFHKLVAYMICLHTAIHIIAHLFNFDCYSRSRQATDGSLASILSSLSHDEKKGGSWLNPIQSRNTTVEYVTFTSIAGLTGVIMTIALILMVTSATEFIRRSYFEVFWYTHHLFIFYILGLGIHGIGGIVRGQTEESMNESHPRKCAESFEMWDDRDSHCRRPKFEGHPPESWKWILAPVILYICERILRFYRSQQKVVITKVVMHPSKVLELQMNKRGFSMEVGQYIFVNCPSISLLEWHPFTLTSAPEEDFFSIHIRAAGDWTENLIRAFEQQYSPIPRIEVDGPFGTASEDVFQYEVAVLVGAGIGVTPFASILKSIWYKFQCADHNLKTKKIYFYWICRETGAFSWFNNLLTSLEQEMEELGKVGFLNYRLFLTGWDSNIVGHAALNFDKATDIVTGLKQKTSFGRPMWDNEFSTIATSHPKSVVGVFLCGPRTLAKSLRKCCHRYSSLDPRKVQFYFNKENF
hNOX1, sequence (P13498 whole entry partner): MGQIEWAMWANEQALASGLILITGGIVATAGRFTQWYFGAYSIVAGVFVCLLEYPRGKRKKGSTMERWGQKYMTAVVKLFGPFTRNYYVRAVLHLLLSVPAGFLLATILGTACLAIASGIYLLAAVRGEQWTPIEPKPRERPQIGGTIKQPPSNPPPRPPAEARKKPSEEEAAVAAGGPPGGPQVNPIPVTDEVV

Ki [µM] | SMILES
0.079 | Cc1nc(O[C@@H](C)c2ccccc2)ccc1C(=O)Nc1nnc(-c2ccncc2)s1 [(43)]
0.077 | Cc1nc(OCc2ccccc2)ccc1C(=O)Nc1nnc(-c2ccncc2)s1 [(45)]
0.035 | COc1cc(C(=O)Nc2nnc(-c3ccncc3)s2)cnc1O[C@@H](C)c1ccccn1 [(46)]
0.021 | C[C@H](Oc1ncc(C(=O)Nc2nnc(-c3ccncc3)s2)cc1NCCN(C)C)c1ccccc1 [(51)]
0.018 | C[C@H](Oc1ncc(C(=O)Nc2nnc(-c3ccncc3)s2)cc1NCC1CCOCC1)c1ccccc1 [(52)]
0.019 | C[C@H](Oc1ncc(C(=O)Nc2nnc(-c3ccncc3)s2)cc1NCC1CCN(C)CC1)c1ccccc1 [(53)]
0.031 | C[C@H](Oc1ncc(C(=O)Nc2nnc(-c3ccncc3)s2)cc1NCCCN(C)C)c1ccccc1 [(63)]
0.051 | C[C@H](Oc1ncc(C(=O)Nc2nnc(-c3ccncc3)s2)cc1NCCO)c1ccccc1 [(65)]
0.066 | C[C@H](Oc1ncc(C(=O)Nc2nnc(-c3ccncc3)s2)cc1NCc1cn(C)cn1)c1ccccc1 [(66)]
0.075 | C[C@H](Oc1ncc(C(=O)Nc2nnc(-c3ccncc3)s2)cc1NC1CCN(C)CC1)c1ccccc1 [(67)]
0.072 | C[C@H](Oc1ncc(C(=O)Nc2nnc(-c3ccncc3)s2)cc1NCCN1CCOCC1)c1ccccc1 [(68)]
0.055 | C[C@H](Oc1ncc(C(=O)Nc2nnc(-c3ccncc3)s2)cc1N1CCN(C)CC1)c1ccccc1 [(69)]
0.09 | CNc1cc(C(=O)Nc2nnc(-c3ccncc3)s2)cnc1O[C@@H](CCN(C)C)c1ccccc1 [(75)]
0.027 | COc1cc(C(=O)Nc2nnc(-c3ccncc3)s2)ccc1O[C@@H]1CCc2ccccc21 [(80)]
0.038 | COc1cc(C(=O)Nc2nnc(-c3ccncc3)s2)ccc1OC1CCCc2ccccc21 (centres unmarked) [(82)]
0.08 | COc1cc(C(=O)Nc2nnc(-c3ccncc3)s2)ccc1OCc1cscn1 [(83)]
0.037 | CC(Oc1ccc(C(=O)Nc2nnc(-c3ccncc3)s2)cc1OCCN(C)C)c1ccccc1 (centres unmarked) [(85)]
0.074 | COCCOc1cc(C(=O)Nc2nnc(-c3ccncc3)s2)ccc1OC(C)c1ccccc1 (centres unmarked) [(86)]

Ki [µM] | SMILES
0.091 | COc1cc(C(=O)Nc2nnc(-c3ccncc3)s2)ccc1OCc1cccnc1C [(89)]
0.1 | COc1cc(C(=O)Nc2nnc(-c3ccncc3)s2)ccc1OCc1ccc(C)cn1 [(90)]
0.078 | COc1cc(C(=O)Nc2nnc(-c3ccncc3)s2)ccc1OCc1cc(C)on1 [(91)]
0.032 | COc1ccc(COc2ccc(C(=O)Nc3nnc(-c4ccncc4)s3)cc2OC)cc1 [(92)]
0.052 | COc1cc(C(=O)Nc2nnc(-c3ccncc3)s2)ccc1OCc1ccccc1F [(93)]
0.014 | COc1cc(C(=O)Nc2nnc(-c3ccncc3)s2)ccc1OCc1ccc(F)cc1 [(96)]
0.074 | COc1cc(C(=O)Nc2nnc(-c3ccncc3)s2)ccc1OCc1cc(C2CC2)on1 [(98)]
0.087 | COc1cc(C(=O)Nc2nnc(-c3ccncn3)s2)ccc1O[C@@H](C)c1ccccn1 [(102)]
0.013 | COc1cc(C(=O)Nc2nnc(-c3ccncc3F)s2)ccc1O[C@@H](C)c1ccccn1 [(103)]
0.019 | COc1cc(C(=O)Nc2nnc(-c3ccncc3F)s2)ccc1O[C@@H](CO)c1ccccc1 [(105)]
0.022 | COc1cc(C(=O)Nc2nnc(-c3ccncc3F)s2)ccc1O[C@@H](CN(C)C)c1ccccc1 [(106)]
0.092 | O=C(Nc1nnc(-c2ccncc2)s1)c1cnc(O[C@@H](CO)c2ccccc2)c(Cl)c1 [(108)]
0.075 | COc1cc(C(=O)Nc2nnc(-c3ccncn3)s2)ccc1OCc1ccccc1 [(111)]
0.037 | COc1cc(C(=O)Nc2nnc(-c3ccncn3)s2)cnc1O[C@@H](CN(C)C)c1ccccc1 [(114)]
0.11 | COc1cc(C(=O)Nc2nnc(-c3ccnc(C)c3)s2)ccc1O[C@@H](CN(C)C)c1ccccc1 [(115)]
0.046 | COc1cc(C(=O)Nc2nnc(-c3ccncc3)s2)ccc1O[C@@H](C)Cc1ccccc1 [(116)]
0.093 | COc1cc(C(=O)Nc2nnc(-c3ccncc3)s2)ccc1CN(C)c1ccccn1 [(120)]
